Measured values reported in article PMC4275256 (PLoS ONE, 2014).

How the values were obtained:
Conditions in all cases: read-out: Km[HCO3 ^-]; pH 8, 50 mM NaCl, 24 °C; labelled compound; corrected for respiratory Ci
[1] = biological target: T1, SbtA7942 (Synechococcus elongatus, UniProt Q31N64)
T1 construct: gene Synpcc7942_1475

[2] = test system: T2, SbtA5701 (SbtA1)
T2 construct: gene sbtA

[3] = biological target: T3, SbtA6803 (Synechocystis sp. PCC 6803, UniProt P73953)
T3 construct: gene slr1512
T3 sequence (P73953 1-374): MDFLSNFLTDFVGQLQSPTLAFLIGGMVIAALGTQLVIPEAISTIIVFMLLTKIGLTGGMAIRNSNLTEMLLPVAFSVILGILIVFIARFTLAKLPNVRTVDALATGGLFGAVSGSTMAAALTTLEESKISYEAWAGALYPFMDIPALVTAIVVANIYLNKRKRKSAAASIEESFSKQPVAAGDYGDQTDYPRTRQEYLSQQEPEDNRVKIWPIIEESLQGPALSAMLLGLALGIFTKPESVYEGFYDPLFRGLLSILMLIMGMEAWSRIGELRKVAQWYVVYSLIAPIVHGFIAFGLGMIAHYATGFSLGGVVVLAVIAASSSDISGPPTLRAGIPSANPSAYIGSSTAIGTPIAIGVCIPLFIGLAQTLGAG

[4] = test system: T4, SbtA6307 (SbtA1)
T4 construct: gene sbtA

Measured: Km

T1 sequence (Q31N64 1-373): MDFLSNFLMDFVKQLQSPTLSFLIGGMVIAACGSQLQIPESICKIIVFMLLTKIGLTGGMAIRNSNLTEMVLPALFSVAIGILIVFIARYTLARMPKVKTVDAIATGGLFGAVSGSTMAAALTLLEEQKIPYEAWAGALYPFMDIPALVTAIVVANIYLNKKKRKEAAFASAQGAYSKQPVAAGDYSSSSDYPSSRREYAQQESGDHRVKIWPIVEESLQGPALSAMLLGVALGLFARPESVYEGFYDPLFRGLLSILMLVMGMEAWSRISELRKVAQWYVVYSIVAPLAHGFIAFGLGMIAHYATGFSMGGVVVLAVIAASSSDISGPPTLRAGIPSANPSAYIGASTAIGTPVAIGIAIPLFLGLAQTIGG

O=C(O)O [HCO3 ^-]
< 100 µM: [1] | [2] | [3] | [4]
